According to patent publication US20220062247A1, “USE OF A PAR-1 ANTAGONIST FOR THE TREATMENT OF A CHRONIC INFLAMMATORY INTESTINAL DISEASE” (CVASTHERA, priority 2018, published 2022):

How the values were obtained:
induced colitis = induced colitis model in mice, by reducing the inflammation phenomenon; cited from earlier work
[1] = tested on: nociceptive response induced by TNBS; test: Nociceptive response (allodynia) by Von Frey filaments technique in TNBS colitis rats; type: in vivo, rat; settings: 2.5 mg/kg/day, 7 days after colitis induction
Description: (§1) Different parameters are measured: the weight of the rats, the presence of blood in the faeces and the diarrhoeas assessed by the disease activity index (DAI score), the intensity of pain (assessed by Von Frey filaments technique measured on days 3 and 7).
The intensity of the pain is measured by the Von Frey filaments technique on days […], according to the protocol described in the publication of Auge et al., 2013, Eur. J. Pharmacol. 707: 32-40.
The effect on the nociceptive response, measured by Von Frey filaments technique according to the mass of Von Frey filaments, is shown in FIG. 10 for prednisolone and in FIG. 11 for vorapaxar.

[2] = tested on: inflammatory bowel disease induced by 2,4,6-trinitrobenzenesulfonic acid (TNBS); test: Colitis induced by intra-colonical TNBS in rats (body weight, DAI score, colon wall thickness, macroscopic damage score, MPO); type: in vivo, male laboratory rat of the Wistar strain
Source text: The purpose of this study is to assess the effectiveness of two PAR-1 antagonists, vorapaxar and 3-2-(chloro-phenyl)-1-[4-(4-fluoro-benzyl)-piperazine-1-yl]propenone (hereinafter, referred to as CSI) in a model of an inflammatory bowel disease induced by 2,4,6-trinitrobenzenesulfonic acid (TNBS) in a male laboratory rat of the Wistar strain. This model is described in the publication of Whittle et al., 2003, in Methods Mol. Biol., 225, 209-222.
In this induced colitis model, the inflammatory reaction is measured every day and is well established 7 days after intra-colonical administration of TNBS.
as §1
The rats are sacrificed 7 days after the beginning of the treatment and the macroscopic damages, the oedema and a marker of the inflammation, myeloperoxidase (MPO), are quantified.
The experiments with the PAR-1 antagonists are carried out in two studies, relating to vorapaxar and CSI, respectively.
The colitis is induced by intra-colonical administration of 2,4,6-trinitrobenzenesulfonic acid (TNBS) (30 mg of TNBS in 0.25 ml of a 50% ethanol/NaCl solution) via a catheter (polyethylene (PE)-60) inserted 8 cm proximally from the anus.
Four groups of 10 rats receive an intra-colonical administration of TNBS, as well as a per os treatment of vorapaxar at the dose of 2.5 mg/kg/day or of CSI at doses of 10 and 40 mg/kg/day or of prednisolone (a compound proposed by the prior art for the treatment of IBDs) at the dose of 3 mg/kg/day. The per os treatments start 1 h before the intra-colonical administration of TNBS.
As a negative comparative example, 1 group of 10 rats receives an intra-colonical administration of TNBS and of the vorapaxar vehicle (phosphate buffered saline—PBS) or of the CSI vehicle (carboxymethyl cellulose—CMC at 1%) per os daily.
Moreover, 1 group of 6 control rats receives an intra-colonical administration of NaCl instead of TNBS.
The DAI score is determined as follows. The development of the disease is estimated on a daily basis. The consistence of the excrements, as well as the presence of blood in the faeces assessed with the Hemoccult® paper test, are respectively quantified by the seriousness scales of Table 3 hereinbelow. The obtained values are added together to obtain the DAI score.
The macroscopic damage score is assessed according to the protocol described in the publication of Comera et al., 1999, Dig. Dis. Sci. 44: 1448-1457, as follows. On day 7 after induction of the colitis, the rats are sacrificed by carbon dioxide CO2 inhalation, the colon (from the anus to the Caecum) is removed and the macroscopic damages are assessed according to the parameters observed and presented in Table 4 hereinbelow, to determine the macroscopic damage score.

[3] = tested on: human colon epithelial cells Caco2; test: Epithelial cells repair: cicatrisation of a lesion on a Caco2 monolayer; type: cell-based
Description: A lesion is practiced using a sterilised forceps on human colon epithelial cells Caco2 in monolayer and at a confluence. Afterwards, the cells are rinsed twice with sterilised […] and then placed in an adequate culture medium. In this medium, vorapaxar at different concentrations (10 nM, 100 nM, 1 μM, 10 μM) or the vehicle (control) are added in independent culture dishes. The cicatrisation of the lesion is supervised and analysed using a confocal microscope for 28 h. The percentage of the lesioned surface of the lesion is determined for each tested condition, 4 h, 22 h and 28 h after the lesion. The obtained results are shown in FIG. 12, respectively in a/, b/ and c/.

Row | Compound | survival rate of animals (induced colitis) | allodynia-type response (Von Frey) [1] | disease activity index (DAI) ([2]; 2.5 mg/kg daily, 7th day) | apparition of oedema (thickness of the wall of the colon) ([2]; 2.5 mg/kg daily, 7th day, vs vehicle group) | disease activity index (DAI) ([2]; 2.5 mg/kg, as of the 1st day, vs vehicle group) | weight loss (body weight) ([2]; 2.5 mg/kg/day per os, as of the 2nd day) | macroscopic damage score ([2]; 2.5 mg/kg/day, day 7, vs vehicle group) | cicatrisation of the lesion (percentage of the lesioned surface) ([3]; Caco2, 4 h after the lesion, 100 nM, 1 μM and 10 μM) | cicatrisation of the lesion (percentage of the lesioned surface) ([3]; Caco2, 22 h after the lesion, 10 nM to 10 μM) | cicatrisation of the lesion (percentage of the lesioned surface) ([3]; Caco2, 28 h after the lesion, from 100 nm to 10 μM)
1 | COc1ccc(C[C@H](NC(=O)Nc2ccc3c(CN4CCCC4)cn(Cc4c(Cl)cccc4Cl)c3c2)C(=O)N[C@@H](CCCNC(=N)N)C(=O)NCc2ccccc2)cc1 [L-arininamide-4-methoxy-N-[[[1-[92,6-dichlorophenyl-methyl]-3-(1-pyrrolidinylmethyl)-1H-indol-6-yl]amino]carbonyl]-1-phenylalanyl-N-(phenylmethyl)-(5)] | improving the survival rate |  |  |  |  |  |  |  |  | 
2 | CCOC(=O)N[C@@H]1CC[C@@H]2[C@@H](C1)C[C@H]1C(=O)O[C@H](C)[C@H]1[C@H]2/C=C/c1ccc(-c2cccc(F)c2)cn1 [vorapaxar, ethyl N-[(1R,3aR,4aR,6R,8aR,9S,9aS)-9-[(E)-2-[5-(3-fluorophenyl)pyridin-2-yl]ethenyl]-1-methyl-3-oxo-3a,4,4a,5,6,7,8,8a,9,9a-decahydro-1H-benzo[f][2]benzofuran-6-yl]carbamate] |  | significantly inhibits | significantly reduces | significantly reduces | significantly reduced | significantly reduces | significantly reduces | highly enhanced | amplifies the cicatrisation surface in a concentration-dependent way | complete cicatrisation
